Legend:
NIM1 = biological target: T1, NIM1 (Homo sapiens, UniProt Q8IY84); experiment: KINOMEscan at 1 μM, NIM1; type: binding; conditions: 1000 nM, read-out: Percent Control
T1 construct: purchased Eurofins DiscoverX KINOMEscan
From the text: (§1) Supplement cells-12-00287-s001.zip/File S2. KinomeScan data for the CAMKK2 probe and negative control.xlsx, sheet "SGC-CAMKK2-1N" | column: Percent Control

HIPK2 = biological target: T2, HIPK2 (Homo sapiens, UniProt Q9H2X6); experiment: KINOMEscan at 1 μM, HIPK2; type: binding; conditions: 1000 nM, read-out: Percent Control
T2 construct: purchased Eurofins DiscoverX KINOMEscan
From the text: as §1

EPHA4 = biological target: T3, EPHA4 (Homo sapiens, UniProt P54764); experiment: KINOMEscan at 1 μM, EPHA4; type: binding; conditions: 1000 nM, read-out: Percent Control
T3 construct: purchased Eurofins DiscoverX KINOMEscan
From the text: as §1

FGFR3(G697C) = biological target: T4, FGFR3(G697C) (Homo sapiens, UniProt P22607, G697C); experiment: KINOMEscan at 1 μM, FGFR3(G697C); type: binding; conditions: 1000 nM, read-out: Percent Control
T4 construct: purchased Eurofins DiscoverX KINOMEscan
T4 sequence (P22607 23-806 G697C): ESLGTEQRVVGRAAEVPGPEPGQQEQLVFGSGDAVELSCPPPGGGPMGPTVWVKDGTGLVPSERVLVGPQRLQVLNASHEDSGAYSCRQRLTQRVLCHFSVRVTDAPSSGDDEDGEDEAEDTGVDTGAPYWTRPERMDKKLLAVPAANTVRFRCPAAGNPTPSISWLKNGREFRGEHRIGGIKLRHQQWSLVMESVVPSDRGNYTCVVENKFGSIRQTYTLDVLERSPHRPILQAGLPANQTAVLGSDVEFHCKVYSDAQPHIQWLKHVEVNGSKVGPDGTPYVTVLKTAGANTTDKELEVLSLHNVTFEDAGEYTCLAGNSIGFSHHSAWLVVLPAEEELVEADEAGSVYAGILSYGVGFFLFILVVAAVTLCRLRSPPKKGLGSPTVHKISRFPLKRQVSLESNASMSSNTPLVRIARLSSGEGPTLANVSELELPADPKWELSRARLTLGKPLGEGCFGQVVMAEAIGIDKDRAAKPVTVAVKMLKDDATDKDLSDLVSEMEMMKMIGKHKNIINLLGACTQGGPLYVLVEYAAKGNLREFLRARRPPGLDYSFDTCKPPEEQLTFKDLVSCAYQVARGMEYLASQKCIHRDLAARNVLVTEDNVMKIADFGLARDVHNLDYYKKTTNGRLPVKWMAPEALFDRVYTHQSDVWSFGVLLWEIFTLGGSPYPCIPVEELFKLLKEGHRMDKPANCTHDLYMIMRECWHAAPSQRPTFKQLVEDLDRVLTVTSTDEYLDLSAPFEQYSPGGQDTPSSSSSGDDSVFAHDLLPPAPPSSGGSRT
From the text: as §1

OSR1 = biological target: T5, OSR1 (Homo sapiens, UniProt O95747); experiment: KINOMEscan at 1 μM, OSR1; type: binding; conditions: 1000 nM, read-out: Percent Control
T5 construct: purchased Eurofins DiscoverX KINOMEscan
From the text: as §1

MYO3A [1] = biological target: T6, MYO3A (Homo sapiens, UniProt Q8NEV4); experiment: KINOMEscan at 1 μM, MYO3A; type: binding; conditions: 1000 nM, read-out: Percent Control
T6 construct: purchased Eurofins DiscoverX KINOMEscan
T6 sequence (Q8NEV4 whole entry): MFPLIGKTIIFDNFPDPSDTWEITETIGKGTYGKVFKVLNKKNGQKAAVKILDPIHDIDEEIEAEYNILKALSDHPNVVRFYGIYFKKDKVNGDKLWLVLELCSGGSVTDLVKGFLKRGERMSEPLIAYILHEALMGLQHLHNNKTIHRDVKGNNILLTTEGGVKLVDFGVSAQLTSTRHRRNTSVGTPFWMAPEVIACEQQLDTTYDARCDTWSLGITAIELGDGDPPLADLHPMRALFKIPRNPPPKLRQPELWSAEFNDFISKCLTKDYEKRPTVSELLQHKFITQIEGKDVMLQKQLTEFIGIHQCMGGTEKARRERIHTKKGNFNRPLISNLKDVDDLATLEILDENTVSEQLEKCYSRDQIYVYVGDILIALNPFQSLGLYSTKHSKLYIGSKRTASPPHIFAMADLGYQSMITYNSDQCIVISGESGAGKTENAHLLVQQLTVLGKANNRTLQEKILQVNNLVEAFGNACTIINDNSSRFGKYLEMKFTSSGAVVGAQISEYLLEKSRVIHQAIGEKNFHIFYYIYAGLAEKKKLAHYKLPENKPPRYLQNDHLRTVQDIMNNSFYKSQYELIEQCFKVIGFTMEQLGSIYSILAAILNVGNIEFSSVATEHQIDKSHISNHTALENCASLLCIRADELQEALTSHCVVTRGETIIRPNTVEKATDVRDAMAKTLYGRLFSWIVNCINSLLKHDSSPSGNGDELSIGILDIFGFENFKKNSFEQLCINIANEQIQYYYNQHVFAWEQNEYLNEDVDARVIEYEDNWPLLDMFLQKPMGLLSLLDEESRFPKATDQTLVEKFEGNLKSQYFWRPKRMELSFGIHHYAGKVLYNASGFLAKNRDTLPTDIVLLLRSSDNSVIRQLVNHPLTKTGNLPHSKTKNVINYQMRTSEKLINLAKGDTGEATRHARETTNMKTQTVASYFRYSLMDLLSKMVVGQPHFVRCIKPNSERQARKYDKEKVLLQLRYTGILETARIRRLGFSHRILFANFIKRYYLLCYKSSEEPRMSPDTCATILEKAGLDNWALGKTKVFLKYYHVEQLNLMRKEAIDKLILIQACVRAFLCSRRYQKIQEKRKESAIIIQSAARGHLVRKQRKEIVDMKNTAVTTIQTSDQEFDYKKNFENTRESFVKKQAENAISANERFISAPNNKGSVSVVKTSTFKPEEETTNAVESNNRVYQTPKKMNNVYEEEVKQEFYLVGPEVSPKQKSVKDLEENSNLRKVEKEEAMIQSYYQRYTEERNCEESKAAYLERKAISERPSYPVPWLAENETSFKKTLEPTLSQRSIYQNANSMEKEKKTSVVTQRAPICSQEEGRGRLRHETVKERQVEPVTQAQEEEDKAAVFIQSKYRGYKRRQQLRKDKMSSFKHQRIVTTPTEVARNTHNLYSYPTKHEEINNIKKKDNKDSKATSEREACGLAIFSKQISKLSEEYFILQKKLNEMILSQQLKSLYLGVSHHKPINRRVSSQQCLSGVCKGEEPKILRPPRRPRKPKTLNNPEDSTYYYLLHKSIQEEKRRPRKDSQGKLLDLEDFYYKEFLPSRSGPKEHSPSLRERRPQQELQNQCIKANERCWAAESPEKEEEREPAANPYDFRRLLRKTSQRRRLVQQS
From the text: as §1

PKAC-beta = biological target: T7, PKAC-beta (Homo sapiens, UniProt P22694); experiment: KINOMEscan binding assay at 1 μM, PKAC-beta; conditions: Compound Concentration 1000 nM; read-out: Percent Control
T7 construct: purchased Eurofins DiscoverX KINOMEscan
From the text: as §1

[2] = biological target: T8, ABL1(F317I)-phosphorylated (Homo sapiens, UniProt P00519, F317I); experiment: KINOMEscan at 1 μM, ABL1(F317I)-phosphorylated; type: binding; conditions: 1000 nM, read-out: Percent Control
T8 construct: purchased Eurofins DiscoverX KINOMEscan
From the text: as §1

p38-beta = biological target: T9, p38-beta (Homo sapiens, UniProt Q15759); experiment: KINOMEscan binding assay at 1 μM, p38-beta; conditions: Compound Concentration 1000 nM; read-out: Percent Control
T9 construct: purchased Eurofins DiscoverX KINOMEscan
T9 sequence (Q15759 whole entry): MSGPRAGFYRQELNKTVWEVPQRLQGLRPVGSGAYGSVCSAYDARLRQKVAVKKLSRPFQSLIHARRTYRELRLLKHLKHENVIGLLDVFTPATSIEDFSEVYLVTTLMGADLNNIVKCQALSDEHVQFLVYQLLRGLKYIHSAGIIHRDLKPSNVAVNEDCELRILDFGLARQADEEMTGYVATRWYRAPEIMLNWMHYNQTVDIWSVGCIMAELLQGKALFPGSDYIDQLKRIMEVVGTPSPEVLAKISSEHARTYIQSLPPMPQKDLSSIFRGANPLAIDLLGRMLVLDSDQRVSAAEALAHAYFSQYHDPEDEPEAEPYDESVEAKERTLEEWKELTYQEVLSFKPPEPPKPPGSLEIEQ
From the text: as §1

[3] = biological target: T10, ABL1(F317I)-nonphosphorylated (Homo sapiens, UniProt P00519, F317I); experiment: KINOMEscan at 1 μM, ABL1(F317I)-nonphosphorylated; type: binding; conditions: 1000 nM, read-out: Percent Control
T10 construct: purchased Eurofins DiscoverX KINOMEscan
From the text: as §1

MYO3A [4] = biological target: T6, MYO3A; experiment: KINOMEscan 1 μM, MYO3A; type: binding; conditions: 1000 nM; Entrez MYO3A; read-out: Percent Control
From the text: (§2) Supplement cells-12-00287-s001.zip/File S2. KinomeScan data for the CAMKK2 probe and negative control.xlsx, sheet "SGC-CAMKK2-1" | column: Percent Control

FLT4 = biological target: T11, FLT4 (Homo sapiens, UniProt P35916); experiment: KINOMEscan 1 μM, FLT4; type: binding; conditions: 1000 nM; Entrez FLT4; read-out: Percent Control
T11 construct: purchased Eurofins DiscoverX KINOMEscan
From the text: as §2

MERTK = biological target: T12, MERTK (Homo sapiens, UniProt Q12866); experiment: KINOMEscan 1 μM, MERTK; type: binding; conditions: 1000 nM; Entrez MERTK; read-out: Percent Control
T12 construct: purchased Eurofins DiscoverX KINOMEscan
From the text: as §2

CDK5 = biological target: T13, CDK5 (Homo sapiens, UniProt Q00535); experiment: KINOMEscan 1 μM, CDK5; type: binding; conditions: 1000 nM; Entrez CDK5; read-out: Percent Control
T13 construct: purchased Eurofins DiscoverX KINOMEscan
From the text: as §2

FES = biological target: T14, FES (Homo sapiens, UniProt P07332); experiment: KINOMEscan 1 μM, FES; type: binding; conditions: 1000 nM; Entrez FES; read-out: Percent Control
T14 construct: purchased Eurofins DiscoverX KINOMEscan
From the text: as §2

ZAP70 = biological target: T15, ZAP70 (Homo sapiens, UniProt P43403); experiment: DiscoverX KINOMEscan binding assay at 1 μM, ZAP70; conditions: Compound Concentration 1000 nM, read-out: Percent Control
T15 construct: purchased Eurofins DiscoverX KINOMEscan
From the text: as §2

HIPK4 = biological target: T16, HIPK4 (Homo sapiens, UniProt Q8NE63); experiment: KINOMEscan 1 μM, HIPK4; type: binding; conditions: 1000 nM; Entrez HIPK4; read-out: Percent Control
T16 construct: purchased Eurofins DiscoverX KINOMEscan
T16 sequence (Q8NE63 whole entry): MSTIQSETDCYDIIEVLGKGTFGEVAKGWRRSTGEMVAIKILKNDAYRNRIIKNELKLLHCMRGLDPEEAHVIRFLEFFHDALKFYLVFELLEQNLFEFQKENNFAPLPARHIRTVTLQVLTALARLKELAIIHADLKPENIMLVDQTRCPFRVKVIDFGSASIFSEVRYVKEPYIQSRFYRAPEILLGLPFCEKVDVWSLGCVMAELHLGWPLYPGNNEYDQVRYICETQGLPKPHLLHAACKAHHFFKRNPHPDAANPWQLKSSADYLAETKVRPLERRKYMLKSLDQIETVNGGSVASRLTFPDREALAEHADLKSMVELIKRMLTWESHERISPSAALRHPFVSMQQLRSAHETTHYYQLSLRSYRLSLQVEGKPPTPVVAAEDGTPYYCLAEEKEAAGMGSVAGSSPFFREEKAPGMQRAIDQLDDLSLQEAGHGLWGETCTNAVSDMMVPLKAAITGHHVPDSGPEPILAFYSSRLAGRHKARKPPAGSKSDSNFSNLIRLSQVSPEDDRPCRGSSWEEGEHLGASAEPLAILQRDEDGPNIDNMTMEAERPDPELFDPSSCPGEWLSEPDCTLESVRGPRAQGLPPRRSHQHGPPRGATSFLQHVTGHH
From the text: as §2

FLT3-autoinhibited = biological target: T17, FLT3-autoinhibited (Homo sapiens, UniProt P36888); experiment: KINOMEscan 1 μM, FLT3-autoinhibited; type: binding; conditions: 1000 nM; Entrez FLT3; read-out: Percent Control
T17 construct: purchased Eurofins DiscoverX KINOMEscan
From the text: as §2

CDKL2 = biological target: T18, CDKL2 (Homo sapiens, UniProt Q92772); experiment: KINOMEscan 1 μM, CDKL2; type: binding; conditions: 1000 nM; Entrez CDKL2; read-out: Percent Control
T18 construct: purchased Eurofins DiscoverX KINOMEscan
From the text: as §2

SRMS = biological target: T19, SRMS (Homo sapiens, UniProt Q9H3Y6); experiment: DiscoverX KINOMEscan binding assay at 1 μM, SRMS; conditions: Compound Concentration 1000 nM, read-out: Percent Control
T19 construct: purchased Eurofins DiscoverX KINOMEscan
From the text: as §2

HIPK1 = biological target: T20, HIPK1 (Homo sapiens, UniProt Q86Z02); experiment: KINOMEscan 1 μM, HIPK1; type: binding; conditions: 1000 nM; Entrez HIPK1; read-out: Percent Control
T20 construct: purchased Eurofins DiscoverX KINOMEscan
From the text: as §2

PIK3CD = biological target: T21, PIK3CD (Homo sapiens, UniProt O00329); experiment: DiscoverX KINOMEscan binding assay at 1 μM, PIK3CD; conditions: Compound Concentration 1000 nM, read-out: Percent Control
T21 construct: purchased Eurofins DiscoverX KINOMEscan
From the text: as §2

MAP3K4 = biological target: T22, MAP3K4 (Homo sapiens, UniProt Q9Y6R4); experiment: KINOMEscan 1 μM, MAP3K4; type: binding; conditions: 1000 nM; Entrez MAP3K4; read-out: Percent Control
T22 construct: purchased Eurofins DiscoverX KINOMEscan
From the text: as §2

FER = biological target: T23, FER (Homo sapiens, UniProt P16591); experiment: KINOMEscan 1 μM, FER; type: binding; conditions: 1000 nM; Entrez FER; read-out: Percent Control
T23 construct: purchased Eurofins DiscoverX KINOMEscan
From the text: as §2

CSNK1G3 = biological target: T24, CSNK1G3 (Homo sapiens, UniProt Q9Y6M4); experiment: KINOMEscan 1 μM, CSNK1G3; type: binding; conditions: 1000 nM; Entrez CSNK1G3; read-out: Percent Control
T24 construct: purchased Eurofins DiscoverX KINOMEscan
From the text: as §2

ASK2 = biological target: T25, ASK2 (Homo sapiens, UniProt O95382); experiment: KINOMEscan 1 μM, ASK2; type: binding; conditions: 1000 nM; Entrez MAP3K6; read-out: Percent Control
T25 construct: purchased Eurofins DiscoverX KINOMEscan
From the text: as §2

TRKA = biological target: T26, TRKA (Homo sapiens, UniProt P04629); experiment: DiscoverX KINOMEscan binding assay at 1 μM, TRKA; conditions: TRKA (NTRK1); Compound Concentration 1000 nM; read-out: Percent Control
T26 construct: purchased Eurofins DiscoverX KINOMEscan
T26 sequence (P04629 33-796): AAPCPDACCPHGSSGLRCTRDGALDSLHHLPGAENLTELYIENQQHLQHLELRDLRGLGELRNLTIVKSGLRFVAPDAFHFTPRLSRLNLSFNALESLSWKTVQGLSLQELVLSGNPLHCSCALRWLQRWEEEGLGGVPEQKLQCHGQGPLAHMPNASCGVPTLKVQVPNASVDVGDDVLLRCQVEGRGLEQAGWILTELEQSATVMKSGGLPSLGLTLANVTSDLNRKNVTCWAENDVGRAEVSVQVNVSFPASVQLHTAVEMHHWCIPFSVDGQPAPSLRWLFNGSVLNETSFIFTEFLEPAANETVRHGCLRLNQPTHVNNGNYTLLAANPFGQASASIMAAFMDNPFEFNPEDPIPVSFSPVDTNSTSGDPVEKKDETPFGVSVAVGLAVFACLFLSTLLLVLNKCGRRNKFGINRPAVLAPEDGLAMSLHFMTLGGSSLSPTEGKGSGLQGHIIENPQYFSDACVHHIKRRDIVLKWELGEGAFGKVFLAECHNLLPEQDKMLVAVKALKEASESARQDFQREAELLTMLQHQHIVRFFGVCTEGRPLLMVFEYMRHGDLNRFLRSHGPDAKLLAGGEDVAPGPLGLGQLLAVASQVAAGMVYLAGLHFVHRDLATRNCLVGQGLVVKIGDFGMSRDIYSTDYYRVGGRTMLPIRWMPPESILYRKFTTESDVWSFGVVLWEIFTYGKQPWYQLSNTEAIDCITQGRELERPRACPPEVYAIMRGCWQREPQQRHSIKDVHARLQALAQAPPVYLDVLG
From the text: as §2

SGK = biological target: T27, SGK (Homo sapiens, UniProt O00141); experiment: KINOMEscan 1 μM, SGK; type: binding; conditions: 1000 nM; Entrez SGK1; read-out: Percent Control
T27 construct: purchased Eurofins DiscoverX KINOMEscan
From the text: as §2

PIK3CA(M1043I) = biological target: T28, PIK3CA(M1043I) (Homo sapiens, UniProt P42336, M1043I); experiment: DiscoverX KINOMEscan binding assay at 1 μM, PIK3CA(M1043I); conditions: Compound Concentration 1000 nM, read-out: Percent Control
T28 construct: purchased Eurofins DiscoverX KINOMEscan
From the text: as §2

RIPK2 = biological target: T29, RIPK2 (Homo sapiens, UniProt O43353); experiment: KINOMEscan 1 μM, RIPK2; type: binding; conditions: 1000 nM; Entrez RIPK2; read-out: Percent Control
T29 construct: purchased Eurofins DiscoverX KINOMEscan
From the text: as §2

ACVRL1 = biological target: T30, ACVRL1 (Homo sapiens, UniProt P37023); experiment: KINOMEscan 1 μM, ACVRL1; type: binding; conditions: 1000 nM; Entrez ACVRL1; read-out: Percent Control
T30 construct: purchased Eurofins DiscoverX KINOMEscan
T30 sequence (P37023 22-503): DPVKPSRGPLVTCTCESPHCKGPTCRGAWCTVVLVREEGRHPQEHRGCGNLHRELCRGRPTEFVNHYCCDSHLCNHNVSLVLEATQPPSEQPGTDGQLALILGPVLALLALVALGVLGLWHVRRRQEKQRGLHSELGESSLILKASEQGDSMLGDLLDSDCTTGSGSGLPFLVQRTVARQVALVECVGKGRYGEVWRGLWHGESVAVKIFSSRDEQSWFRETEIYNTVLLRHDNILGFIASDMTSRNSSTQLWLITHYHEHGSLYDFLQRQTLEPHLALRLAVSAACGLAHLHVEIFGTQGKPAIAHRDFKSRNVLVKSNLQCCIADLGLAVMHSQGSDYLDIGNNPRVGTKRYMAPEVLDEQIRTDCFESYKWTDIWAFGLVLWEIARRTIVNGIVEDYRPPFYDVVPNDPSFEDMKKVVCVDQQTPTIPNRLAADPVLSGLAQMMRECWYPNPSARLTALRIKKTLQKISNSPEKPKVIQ
From the text: as §2

LIMK2 = biological target: T31, LIMK2 (Homo sapiens, UniProt P53671); experiment: KINOMEscan 1 μM, LIMK2; type: binding; conditions: 1000 nM; Entrez LIMK2; read-out: Percent Control
T31 construct: purchased Eurofins DiscoverX KINOMEscan
From the text: as §2

WNK2 = biological target: T32, WNK2 (Homo sapiens, UniProt Q9Y3S1); experiment: KINOMEscan 1 μM, WNK2; type: binding; conditions: 1000 nM; Entrez WNK2; read-out: Percent Control
T32 construct: purchased Eurofins DiscoverX KINOMEscan
From the text: as §2

T1 sequence (Q8IY84 whole entry): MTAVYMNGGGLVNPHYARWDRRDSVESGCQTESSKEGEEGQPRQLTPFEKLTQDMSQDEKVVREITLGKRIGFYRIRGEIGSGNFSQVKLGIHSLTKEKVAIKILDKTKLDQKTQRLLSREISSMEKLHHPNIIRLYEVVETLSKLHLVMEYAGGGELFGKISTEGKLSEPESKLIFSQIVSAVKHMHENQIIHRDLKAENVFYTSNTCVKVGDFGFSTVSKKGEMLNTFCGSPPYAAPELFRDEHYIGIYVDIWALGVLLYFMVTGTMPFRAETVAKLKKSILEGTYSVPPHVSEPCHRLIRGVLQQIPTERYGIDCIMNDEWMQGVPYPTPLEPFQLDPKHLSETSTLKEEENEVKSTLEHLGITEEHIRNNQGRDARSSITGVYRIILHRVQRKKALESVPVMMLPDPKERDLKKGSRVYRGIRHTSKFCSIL

## O=C(O)c1ccc(-c2coc3ncc(-c4ccccc4)cc23)cc1Cl [SGC-CAMKK2-1N (UNC-YL-83)]
NIM1
  remaining binding at 1 µM: 81%
HIPK2
  remaining binding at 1 µM: 77%
EPHA4
  remaining binding at 1 µM: 86%
FGFR3(G697C)
  remaining binding at 1 µM: 65%
OSR1
  remaining binding at 1 µM: 64%
MYO3A [1]
  remaining binding at 1 µM: 72%
PKAC-beta
  remaining binding at 1 µM: 100%
[2]
  remaining binding at 1 µM: 90%
p38-beta
  remaining binding at 1 µM: 100%
[3]
  remaining binding at 1 µM: 37%

## Cc1cccc(-c2cnc3occ(-c4ccc(C(=O)O)c(C5CCCC5)c4)c3c2)c1 [SGC-CAMKK2-1 (YL-36)]
MYO3A [4]
  remaining binding at 1 µM: 100%
FLT4
  remaining binding at 1 µM: 96%
MERTK
  remaining binding at 1 µM: 100%
CDK5
  remaining binding at 1 µM: 100%
FES
  remaining binding at 1 µM: 88%
ZAP70
  remaining binding at 1 µM: 100%
HIPK4
  remaining binding at 1 µM: 100%
FLT3-autoinhibited
  remaining binding at 1 µM: 100%
CDKL2
  remaining binding at 1 µM: 96%
SRMS
  remaining binding at 1 µM: 100%
HIPK1
  remaining binding at 1 µM: 90%
PIK3CD
  remaining binding at 1 µM: 100%
MAP3K4
  remaining binding at 1 µM: 100%
FER
  remaining binding at 1 µM: 77%
CSNK1G3
  remaining binding at 1 µM: 99%
ASK2
  remaining binding at 1 µM: 96%
TRKA
  remaining binding at 1 µM: 100%
SGK
  remaining binding at 1 µM: 86%
PIK3CA(M1043I)
  remaining binding at 1 µM: 100%
RIPK2
  remaining binding at 1 µM: 55%
ACVRL1
  remaining binding at 1 µM: 100%
LIMK2
  remaining binding at 1 µM: 86%
WNK2
  remaining binding at 1 µM: 67%
